Experiments:
[1] = Stability of aqueous solution of Compound (A) (t95); format: physicochemical; details: 37° C.
Method: Certain epothilones including the preferred epothilone, Compound (A), are unstable in acidic aqueous environments and decompose, presumably by an acid catalyzed hydrolytic opening of the epoxide ring. For example, the time for 5% drug loss (t95) at 37° C. for an aqueous solution of Compound (A) is approximately 38 minutes at pH 7.4 but only about 0.2 minutes at pH 2.5. Thus, when epothilones of Formula (Ia) or (Ib), or a pharmaceutically acceptable salt, solvate, clathrate, hydrate, or prodrug thereof, are orally administered they decompose in the stomach of the patient such that they are either minimally absorbed or not absorbed by the gastrointestinal tract.

CYP3A4 = molecular target: T1, CYP3A4 (Homo sapiens, UniProt P08684); assay: Biotransformation of Compound (A) in human liver microsomes with specific CYP inhibitors; format: in vitro ADME
T1 construct: from tissue; host or cells: human liver microsomes
T1 sequence (P08684 whole entry): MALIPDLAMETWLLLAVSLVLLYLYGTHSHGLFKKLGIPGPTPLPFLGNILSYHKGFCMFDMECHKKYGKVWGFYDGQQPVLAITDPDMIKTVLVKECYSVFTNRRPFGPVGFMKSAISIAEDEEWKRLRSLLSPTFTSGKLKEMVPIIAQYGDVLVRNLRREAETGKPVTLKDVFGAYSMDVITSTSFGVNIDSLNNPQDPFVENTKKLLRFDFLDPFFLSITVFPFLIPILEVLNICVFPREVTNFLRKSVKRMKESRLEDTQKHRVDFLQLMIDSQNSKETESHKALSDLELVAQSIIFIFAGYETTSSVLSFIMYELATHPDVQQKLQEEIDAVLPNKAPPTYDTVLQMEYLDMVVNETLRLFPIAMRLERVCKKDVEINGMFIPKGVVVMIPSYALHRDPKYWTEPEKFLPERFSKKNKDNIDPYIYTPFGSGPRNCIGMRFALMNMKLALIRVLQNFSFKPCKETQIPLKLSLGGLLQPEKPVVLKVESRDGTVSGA

[2] = Pharmacokinetics in dogs, 10 min IV infusion; format: in vivo, male beagle dogs
Method: Plasma samples from pharmacokinetic/pharmacodynamic studies were analyzed for the concentration of Compound (A) using an LC/MS/MS (liquid chromatography/mass spectrometry/mass spectrometry) assay with a standard curve range of 5 to 20,000 ng/mL (10 to 40,000 nM) for studies in mice and 2 to 1000 ng/mL (4 to 2000 nM) for studies in rats and dogs. In pharmacodynamic studies, concentrations of Compound (A) were determined using the LC/MS/MS assay with a standard curve range of 5 to 20,000 ng/mL (10 to 40,000 nM) in mouse plasma. The LC/MS/MS assay was also used to determine the concentrations of Compound (B), a degradation product of Compound (A) formed in the stock/dosing solution or in vivo, in rat and dog plasma. The structure of Compound (B) is: [drawing 9]
Male beagle dogs (n=3) were administered a 10 min IV infusion of 0.5 mg/kg of Compound (A) (given as a 10% ethanol solution). Plasma samples were taken over a period of 32 h after dose to determine the plasma concentrations of Compound (A). […] The T-HALF was estimated to be approximately 24 h.

human liver microsomes = assay: Oxidative metabolism in human liver microsomes; format: in vitro ADME; details: 40 :M, NADPH
Method: (§1) Upon incubation of Compound (A) (40 :M) with mouse, rat, dog, and human liver microsomes fortified with nicotinamide adenine dinucleotide phosphate (NADPH), the rate of oxidative metabolism of Compound (A) was 2.1, 0.7, 1.2 and 1.3 nmol/min/mg protein, respectively. Moreover, the metabolite distribution was similar among all species (metabolite masses included several […] and M−2 compounds). Qualitatively, there appeared to be similar production of metabolites of Compound (A) after incubation with rat or human hepatocytes compared to microsomal incubations. Products similar to those arising from the chemical degradation of Compound (A) appeared to be the major products in the hepatocyte incubations.

mouse liver microsomes = assay: Oxidative metabolism in mouse liver microsomes; format: in vitro ADME; details: 40 :M, NADPH
Method: as §1

[3] = Excretion in bile duct cannulated rats; format: in vivo, Sprague Dawley rats; details: intraarterial 10 mg/kg or oral 20 mg/kg, 9 h
Method: In another study, bile duct cannulated Sprague Dawley rats (n=2 per group) received a single intraterial (10 mg/kg) or oral (20 mg/kg) dose of Compound (A), and bile, urine, and plasma samples were collected over a period of 9 h after dose. There was negligible excretion of intact Compound (A) in the bile (C 1% of the dose). There was some detectable amount of Compound (A) in the urine, but actual concentrations were not quantified due to lack of stability data for Compound (A) in the urine. Several drug-related compounds in the urine and plasma were tentatively identified by LC/MS and included an isomer (M+0), and a hydrolysis product (M+18). In addition, a metabolite (M−2) was detected in the plasma.

[4] = Pharmacokinetics of oral and IV Compound A in cancer patients; format: in vivo
Method: Patients with advanced malignancies were administered Compound A weekly as a 30-minute infusion (a course=3 intravenous weekly administrations). […] Serial plasma sampling was obtained on day 6 and day 1 of course 1 to assess pharmacokinetics by an LC/MS/MS. The LC/MS/MS assay was the same as used in Example 1.
Following oral administration on day 6, 7 mL blood samples was collected into Becton Dickinson Vacutainer tubes with K3EDTA as anticoagulent (lavender-colored top) according to the following schedule (expressed as hours:minutes from the start of the oral administration): predose, 00:15, 00:30, 00:45, 01:00, 01:30, 02:00, 03:00, 04:00, 06:00, 08:00, 24:00, 48:00, and 72:00. Following IV administration on day 1, 7 mL blood samples were collected into Becton Dickinson Vacutainer tubes with K3EDTA as anticoagulent (lavender-colored top) according to the following schedule (expressed as hours:minutes from the start of the IV infusion): predose, 00:15, 00:30 (end-of infusion), 00:45, 01:00, 01:30, 02:00, 03:00, 04:00, 06:00, 08:00, 24:00, 48:00, and 72:00.
Immediately after blood collection, the Vacutainer tubes were inverted several times to ensure mixing with the anticoagulant and then immediately placed on crushed ice. Within 30 minutes of collection, samples were centrifuged for 5 minutes at approximately 2000×g and 0 to 5 EC 5° C. The plasma was then transferred to separate pre-labeled screw-capped polypropylene tubes and stored at −70 EC −70° C. until bioanalysis. Plasma concentrations of Compound A were analyzed using the LC/MS/MS assay described in Example 1.
The plasma concentration versus time data were analyzed using non-compartmental methods. The pharmacokinetic parameters determined for Compound A included the maximum observed plasma concentration (Cmax), time to reach Cmax (Tmax), area under the plasma concentration time curve from time zero to the time of last sampling time T(AUC (0−T)).

[5] = 20 mg/m^2, oral solution with buffer
[6] = 25 mg/m^2, oral solution with buffer
[7] = 305 mg/m^2 as printed, oral solution with buffer

C/C(=C\c1csc(C)n1)[C@@H]1C[C@@H]2O[C@]2(C)CCC[C@H](C)[C@H](O)[C@@H](C)C(=O)C(C)(C)[C@@H](O)CC(=O)N1 (relative stereo) [Compound (A), [1S-[1R*,3R*(E),7R*,10S*,11R*,12R*,16S*]]-7,11-dihydroxy 8,8,10,12,16-pentamethyl-3-[1-methyl-2-(2-methyl-4-thiazolyl)ethenyl-4-aza-17-oxobicyclo[14.1.0]heptadecane-5,9-dione]
time for 5% drug loss (t95) ([1]; pH 2.5): about 0.2 minutes | time for 5% drug loss (t95) ([1]; pH 7.4): approximately 38 minutes | cytochrome P450 responsible for metabolism (CYP3A4): may be a substrate for CYP3A4 | CLT (mean) ([2]; 10 min IV infusion 0.5 mg/kg): 17.3 mL/min/kg | T-HALF ([2]; IV 0.5 mg/kg): approximately 24 h | mean VSS ([2]; IV 0.5 mg/kg): 25.2 L/kg | CLT as percent of liver blood flow ([2]; IV 0.5 mg/kg, liver blood flow 30.9 mL/min/kg): about 56% | AUC, mean (SD) ([2]; preliminary IV pharmacokinetic study, 0.5 mg/kg): 483 (34) h.ng/mL | rate of oxidative metabolism (human liver microsomes): 1.3 nmol/min/mg protein | rate of oxidative metabolism (mouse liver microsomes): 2.1 nmol/min/mg protein | excretion of intact Compound (A) in the bile [3]: < 1 % of the dose | AUC(0-T), mean ([4]; 20 mg/m^2, IV): 796 ng·h/mL | TMAX, median ([4]; 20 mg/m^2, IV): 15 min | CMAX, mean ([4]; 20 mg/m^2, IV, N 3): 251 ng/mL | % F, mean [4, 5]: 43.5% | AUC(0-T), mean [4, 5]: 404 ng·h/mL | TMAX, median [4, 5]: 60 min | CMAX, mean ([4]; 20 mg/m^2, oral solution with buffer, N 3): 142 ng/mL | AUC(0-T), mean ([4]; 25 mg/m^2, IV): 848 ng·h/mL | TMAX, median ([4]; 25 mg/m^2, IV): 30 min | CMAX, mean ([4]; 25 mg/m^2, IV, N 11): 447 ng/mL | % F, mean [4, 6]: 55.6% | AUC(0-T), mean [4, 6]: 533 ng·h/mL | TMAX, median [4, 6]: 30 min | CMAX, mean ([4]; 25 mg/m^2, oral solution with buffer, N 11): 180 ng/mL | AUC(0-T), mean ([4]; 305 mg/m^2 as printed, IV): 1155 ng·h/mL | TMAX, median ([4]; 305 mg/m^2 as printed, IV): 30 min | CMAX, mean ([4]; 305 mg/m^2 as printed, IV, N 4): 711 ng/mL | % F, mean [4, 7]: 62.2% | AUC(0-T), mean [4, 7]: 708 ng·h/mL | TMAX, median [4, 7]: 30 min | CMAX, mean ([4]; 305 mg/m^2 as printed, oral solution with buffer, N 4): 274 ng/mL

Reference: patent publication USRE40387E1, “Pharmaceutical compositions, dosage forms and methods for oral administration of epothilones” (Bristol-Myers Squibb Company, priority 2001, dated 2008)
